Test results: PubChem BioAssay AID1963986 (Molecular Pharmacology Branch, DTP, NCI, 2024)
pIC50: −log10 of the molar value.

System: 171881-019-R-J1-PDC tumor spheroid viability
Test: Anticancer human tumor 171881-019-R-J1-PDC patient-derived invasive breast carcinoma cell line growth inhibition [PI3K]
Details: spheroids with HUVEC and MSC; for pIC50: curve of first compound; for viability, T/C: stronger effect = lower value
How it was run: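 Targeted small molecules plus PI3K inhibitors, half-log dose series from Cmax (default top 10 microM), were applied to heterotypic spheroids of cancer cells with HUVEC and MSCs. Viability indicated growth inhibition.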

[1] = second compound 0.00316 µM, first compound 0.000316 µM
[2] = second compound 0.00316 µM, first compound 0.001 µM
[3] = second compound 0.00316 µM, first compound 0.00316 µM
[4] = second compound 0.00316 µM, first compound 0.01 µM
[5] = second compound 0.00316 µM, first compound 0.0316 µM
[6] = second compound 0.00316 µM, first compound 0.1 µM
[7] = second compound 0.01 µM, first compound 0.000316 µM
[8] = second compound 0.01 µM, first compound 0.001 µM
[9] = second compound 0.01 µM, first compound 0.00316 µM
[10] = second compound 0.01 µM, first compound 0.01 µM
[11] = second compound 0.01 µM, first compound 0.0316 µM
[12] = second compound 0.01 µM, first compound 0.1 µM
[13] = second compound 0.0316 µM, first compound 0.000316 µM
[14] = second compound 0.0316 µM, first compound 0.001 µM
[15] = second compound 0.0316 µM, first compound 0.00316 µM
[16] = second compound 0.0316 µM, first compound 0.01 µM
[17] = second compound 0.0316 µM, first compound 0.0316 µM
[18] = second compound 0.0316 µM, first compound 0.1 µM
[19] = second compound 0.1 µM, first compound 0.000316 µM
[20] = second compound 0.1 µM, first compound 0.001 µM
[21] = second compound 0.1 µM, first compound 0.00316 µM
[22] = second compound 0.1 µM, first compound 0.01 µM
[23] = second compound 0.1 µM, first compound 0.0316 µM
[24] = second compound 0.1 µM, first compound 0.1 µM
[25] = second compound 0.316 µM, first compound 0.000316 µM
[26] = second compound 0.316 µM, first compound 0.001 µM
[27] = second compound 0.316 µM, first compound 0.00316 µM
[28] = second compound 0.316 µM, first compound 0.01 µM
[29] = second compound 0.316 µM, first compound 0.0316 µM
[30] = second compound 0.316 µM, first compound 0.1 µM
[31] = second compound 1 µM, first compound 0.000316 µM
[32] = second compound 1 µM, first compound 0.001 µM
[33] = second compound 1 µM, first compound 0.00316 µM
[34] = second compound 1 µM, first compound 0.01 µM
[35] = second compound 1 µM, first compound 0.0316 µM
[36] = second compound 1 µM, first compound 0.1 µM
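Also: spheroids exposed to compound for 7 days before viability read.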
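For viability, T/C in this document: 100% = DMSO vehicle-treated spheroids.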

CC(=O)c1c(C)c2cnc(Nc3ccc(N4CCNCC4)cn3)nc2n(C2CCCC2)c1=O + COc1c(OCCCN2CCOCC2)ccc2c3n(c(=NC(=O)c4cnc(N)nc4)nc12)CCN3
pIC50 (second compound 0.00316 µM): < 7.00
pIC50 (second compound 0.01 µM): > 9.50
pIC50 (second compound 0.0316 µM): > 9.50
pIC50 (second compound 0.1 µM): > 9.50
pIC50 (second compound 0.316 µM): > 9.50
pIC50 (second compound 1 µM): > 9.50
viability, T/C [1]: 64.3%
viability, T/C [2]: 63.9%
viability, T/C [3]: 65.5%
viability, T/C [4]: 73%
viability, T/C [5]: 65%
viability, T/C [6]: 70.4%
viability, T/C [7]: 48.1%
viability, T/C [8]: 53.9%
viability, T/C [9]: 52.2%
viability, T/C [10]: 55.1%
viability, T/C [11]: 57.9%
viability, T/C [12]: 58.5%
viability, T/C [13]: 20.7%
viability, T/C [14]: 25%
viability, T/C [15]: 26.8%
viability, T/C [16]: 27%
viability, T/C [17]: 28.5%
viability, T/C [18]: 27.9%
viability, T/C [19]: 6.71%
viability, T/C [20]: 6.39%
viability, T/C [21]: 8.12%
viability, T/C [22]: 7.28%
viability, T/C [23]: 8.51%
viability, T/C [24]: 7.44%
viability, T/C [25]: 1.58%
viability, T/C [26]: 2.19%
viability, T/C [27]: 1.53%
viability, T/C [28]: 1.61%
viability, T/C [29]: 1.59%
viability, T/C [30]: 1.7%
viability, T/C [31]: 1.49%
viability, T/C [32]: 1.21%
viability, T/C [33]: 1.21%
viability, T/C [34]: 1.26%
viability, T/C [35]: 1.35%
viability, T/C [36]: 1.32%

CC(C)n1nc(-c2ccc3oc(N)nc3c2)c2c(N)ncnc21 + COc1c(OCCCN2CCOCC2)ccc2c3n(c(=NC(=O)c4cnc(N)nc4)nc12)CCN3
pIC50 (second compound 0.00316 µM): 8.45
pIC50 (second compound 0.01 µM): > 9.50
pIC50 (second compound 0.0316 µM): > 9.50
pIC50 (second compound 0.1 µM): > 9.50
pIC50 (second compound 0.316 µM): > 9.50
pIC50 (second compound 1 µM): > 9.50
viability, T/C [1]: 61.1%
viability, T/C [2]: 66.3%
viability, T/C [3]: 47.6%
viability, T/C [4]: 36.1%
viability, T/C [5]: 13.1%
viability, T/C [6]: 3.55%
viability, T/C [7]: 46%
viability, T/C [8]: 45.8%
viability, T/C [9]: 36.4%
viability, T/C [10]: 19.3%
viability, T/C [11]: 8.72%
viability, T/C [12]: 2.78%
viability, T/C [13]: 23.6%
viability, T/C [14]: 22.3%
viability, T/C [15]: 16%
viability, T/C [16]: 8.85%
viability, T/C [17]: 4.14%
viability, T/C [18]: 2.34%
viability, T/C [19]: 8.49%
viability, T/C [20]: 7.85%
viability, T/C [21]: 5.37%
viability, T/C [22]: 3.59%
viability, T/C [23]: 2.66%
viability, T/C [24]: 1.6%
viability, T/C [25]: 2.47%
viability, T/C [26]: 2.41%
viability, T/C [27]: 2.58%
viability, T/C [28]: 1.51%
viability, T/C [29]: 1.36%
viability, T/C [30]: 1.1%
viability, T/C [31]: 1.08%
viability, T/C [32]: 0.86%
viability, T/C [33]: 1.3%
viability, T/C [34]: 1.16%
viability, T/C [35]: 1.03%
viability, T/C [36]: 1.05%

CCCS(=O)(=O)Nc1ccc(F)c(C(=O)c2c[nH]c3ncc(-c4ccc(Cl)cc4)cc23)c1F + COc1c(OCCCN2CCOCC2)ccc2c3n(c(=NC(=O)c4cnc(N)nc4)nc12)CCN3
pIC50 (second compound 0.00316 µM): 5.24
pIC50 (second compound 0.01 µM): 5.34
pIC50 (second compound 0.0316 µM): > 7.50
pIC50 (second compound 0.1 µM): > 7.50
pIC50 (second compound 0.316 µM): > 7.50
pIC50 (second compound 1 µM): > 7.50
viability, T/C [5]: 70.6%
viability, T/C [6]: 81.9%
viability, T/C (second compound 0.00316 µM, first compound 0.316 µM): 94.3%
viability, T/C (second compound 0.00316 µM, first compound 1 µM): 108%
viability, T/C (second compound 0.00316 µM, first compound 3.16 µM): 93.7%
viability, T/C (second compound 0.00316 µM, first compound 10 µM): 12.9%
viability, T/C [11]: 53.8%
viability, T/C [12]: 60%
viability, T/C (second compound 0.01 µM, first compound 0.316 µM): 67.2%
viability, T/C (second compound 0.01 µM, first compound 1 µM): 83.6%
viability, T/C (second compound 0.01 µM, first compound 3.16 µM): 76.5%
viability, T/C (second compound 0.01 µM, first compound 10 µM): 9.83%
viability, T/C [17]: 29%
viability, T/C [18]: 29.3%
viability, T/C (second compound 0.0316 µM, first compound 0.316 µM): 32%
viability, T/C (second compound 0.0316 µM, first compound 1 µM): 40.5%
viability, T/C (second compound 0.0316 µM, first compound 3.16 µM): 45.8%
viability, T/C (second compound 0.0316 µM, first compound 10 µM): 5.59%
viability, T/C [23]: 9.3%
viability, T/C [24]: 10.5%
viability, T/C (second compound 0.1 µM, first compound 0.316 µM): 10.9%
viability, T/C (second compound 0.1 µM, first compound 1 µM): 13.9%
viability, T/C (second compound 0.1 µM, first compound 3.16 µM): 17.3%
viability, T/C (second compound 0.1 µM, first compound 10 µM): 2.6%
viability, T/C [29]: 2.18%
viability, T/C [30]: 2.42%
viability, T/C (second compound 0.316 µM, first compound 0.316 µM): 3.05%
viability, T/C (second compound 0.316 µM, first compound 1 µM): 2.63%
viability, T/C (second compound 0.316 µM, first compound 3.16 µM): 3.95%
viability, T/C (second compound 0.316 µM, first compound 10 µM): 2.09%
viability, T/C [35]: 1.32%
viability, T/C [36]: 1.32%
viability, T/C (second compound 1 µM, first compound 0.316 µM): 1.47%
viability, T/C (second compound 1 µM, first compound 1 µM): 1.16%
viability, T/C (second compound 1 µM, first compound 3.16 µM): 1.64%
viability, T/C (second compound 1 µM, first compound 10 µM): 3.34%
